In patent publication US6096930A, “Herbicidal cyclohexane-1,3-dione derivatives and their preparation process” (Korea Research Institute of Chemical Technology, priority 1994, dated 2000):
Like-named read-outs stand apart in the source and are kept apart here.

Experiments:
Test in all cases: Herbicidal activity for paddy test
Assay type in all cases: in vivo
ECHOR = details: for pest or weed control at 2 g/ha: 0.002 kg/ha; for pest or weed control at 8 g/ha: 0.008 kg/ha; for pest or weed control at 31 g/ha: 0.031 kg/ha; for pest or weed control at 125 g/ha: 0.125 kg/ha; for pest or weed control at 500 g/ha: 0.500 kg/ha
Text: (§1) The sterilized sandy loam soil is filled in test pot having a surface area of 348 cm^2 for upland test conditions or 115 cm^2 for paddy test species were planted in furrows.
(§2) The herbicidal activity data were taken visually by percent control, wherein 0 signifies no herbicidal effect and 100 signifies complete kill.

MOOVA = details: for pest or weed control at 2 g/ha: 0.002 kg/ha; for pest or weed control at 8 g/ha: 0.008 kg/ha; for pest or weed control at 31 g/ha: 0.031 kg/ha; for pest or weed control at 125 g/ha: 0.125 kg/ha; for pest or weed control at 500 g/ha: 0.500 kg/ha
Text: as §1, §2

SCPJU = details: for pest or weed control at 2 g/ha: 0.002 kg/ha; for pest or weed control at 8 g/ha: 0.008 kg/ha; for pest or weed control at 31 g/ha: 0.031 kg/ha; for pest or weed control at 125 g/ha: 0.125 kg/ha; for pest or weed control at 500 g/ha: 0.500 kg/ha
Text: as §1, §2

SAGPY = details: for pest or weed control at 2 g/ha: 0.002 kg/ha; for pest or weed control at 8 g/ha: 0.008 kg/ha; for pest or weed control at 31 g/ha: 0.031 kg/ha; for pest or weed control at 125 g/ha: 0.125 kg/ha; for pest or weed control at 500 g/ha: 0.500 kg/ha
Text: as §1, §2

ORYSA = details: for plant injury at 2 g/ha: 0.002 kg/ha; for plant injury at 8 g/ha: 0.008 kg/ha; for plant injury at 31 g/ha: 0.031 kg/ha; for plant injury at 125 g/ha: 0.125 kg/ha; for plant injury at 500 g/ha: 0.500 kg/ha
Text: as §1, §2

[1] = 3 Leaf, read-out: Herbicidal activity, ORYSA (3 Leaf)
[2] = seed, read-out: Herbicidal activity, ORYSA (seed)

For `C=CCON=C(CC)C1=C(O)CC(c2c(C)c(C)c3c(c2C)CC(C)(C)C3)CC1=O` (stereo not drawn) [Compound 3, 5-(2,2,4,6,7-Pentamethylindan-5-yl)-2-[1-(allyloxyimino)propyl]-3-hydroxycyclohex-2-en-1-one], the pest or weed control at 2 g/ha (ECHOR) was 0%, the pest or weed control at 8 g/ha (ECHOR) was 100% and the pest or weed control at 31 g/ha (ECHOR) was 100%. For the same molecule, the pest or weed control at 125 g/ha (ECHOR) was 100%, the pest or weed control at 500 g/ha (ECHOR) was 100% and the pest or weed control at 2 g/ha (MOOVA) was 0%. For the same molecule, the pest or weed control at 8 g/ha (MOOVA) was 0%, the pest or weed control at 31 g/ha (MOOVA) was 0% and the pest or weed control at 125 g/ha (MOOVA) was 0%. The pest or weed control at 500 g/ha (MOOVA) was 0%, the pest or weed control at 2 g/ha (SCPJU) was 0% and the pest or weed control at 8 g/ha (SCPJU) was 0%. For the same molecule, the pest or weed control at 31 g/ha (SCPJU) was 0%, the pest or weed control at 125 g/ha (SCPJU) was 0% and the pest or weed control at 500 g/ha (SCPJU) was 0%. The pest or weed control at 2 g/ha (SAGPY) was 0%, the pest or weed control at 8 g/ha (SAGPY) was 0% and the pest or weed control at 31 g/ha (SAGPY) was 0%. It also gave a pest or weed control at 125 g/ha (SAGPY) of 0%, a pest or weed control at 500 g/ha (SAGPY) of 0% and a plant injury at 2 g/ha (ORYSA; [1]) of 0%. It also gave a plant injury at 8 g/ha (ORYSA; [1]) of 0%, a plant injury at 31 g/ha (ORYSA; [1]) of 0% and a plant injury at 125 g/ha (ORYSA; [1]) of 10%. For the same molecule, the plant injury at 500 g/ha (ORYSA; [1]) was 100%, the plant injury at 2 g/ha (ORYSA; [2]) was 0% and the plant injury at 8 g/ha (ORYSA; [2]) was 10%. For the same molecule, the plant injury at 31 g/ha (ORYSA; [2]) was 100%, the plant injury at 125 g/ha (ORYSA; [2]) was 100% and the plant injury at 500 g/ha (ORYSA; [2]) was 100%.

`C=CCON=C(CC)C1=C(O)CC(c2c(C)c(C)c3c(c2C)CC(C)(CC)C3)CC1=O` (stereo not drawn) [Compound 13, 5-(2-Ethyl-2,4,5,7-tetramethylindan-6-yl)-2-[1-(allyloxyimino)propyl]-3-hydroxycyclohex-2-en-1-one] gave a pest or weed control at 2 g/ha (ECHOR) of 30%, a pest or weed control at 8 g/ha (ECHOR) of 50% and a pest or weed control at 31 g/ha (ECHOR) of 100%. The pest or weed control at 125 g/ha (ECHOR) was 100%, the pest or weed control at 500 g/ha (ECHOR) was 100% and the pest or weed control at 2 g/ha (MOOVA) was 0%. The pest or weed control at 8 g/ha (MOOVA) was 0%, the pest or weed control at 31 g/ha (MOOVA) was 0% and the pest or weed control at 125 g/ha (MOOVA) was 0%. For the same molecule, the pest or weed control at 500 g/ha (MOOVA) was 30%, the pest or weed control at 2 g/ha (SCPJU) was 0% and the pest or weed control at 8 g/ha (SCPJU) was 0%. For the same molecule, the pest or weed control at 31 g/ha (SCPJU) was 0%, the pest or weed control at 125 g/ha (SCPJU) was 0% and the pest or weed control at 500 g/ha (SCPJU) was 0%. For the same molecule, the pest or weed control at 2 g/ha (SAGPY) was 0%, the pest or weed control at 8 g/ha (SAGPY) was 0% and the pest or weed control at 31 g/ha (SAGPY) was 0%. The pest or weed control at 125 g/ha (SAGPY) was 30%, the pest or weed control at 500 g/ha (SAGPY) was 30% and the plant injury at 2 g/ha (ORYSA; [1]) was 0%. For the same molecule, the plant injury at 8 g/ha (ORYSA; [1]) was 0%, the plant injury at 31 g/ha (ORYSA; [1]) was 0% and the plant injury at 125 g/ha (ORYSA; [1]) was 0%. The plant injury at 500 g/ha (ORYSA; [1]) was 30%, the plant injury at 2 g/ha (ORYSA; [2]) was 0% and the plant injury at 8 g/ha (ORYSA; [2]) was 30%. The plant injury at 31 g/ha (ORYSA; [2]) was 50%, the plant injury at 125 g/ha (ORYSA; [2]) was 100% and the plant injury at 500 g/ha (ORYSA; [2]) was 100%.

`CCON=C(CC)C1=C(O)CC(c2c(C)c(C)c3c(c2Cl)CC(C)(C)C3)CC1=O` (stereo not drawn) [Compound 39] was tested, and the pest or weed control at 2 g/ha (ECHOR) was 0%, the pest or weed control at 8 g/ha (ECHOR) was 80% and the pest or weed control at 31 g/ha (ECHOR) was 100%. It also gave a pest or weed control at 125 g/ha (ECHOR) of 100%, a pest or weed control at 500 g/ha (ECHOR) of 100% and a pest or weed control at 2 g/ha (MOOVA) of 0%. It also gave a pest or weed control at 8 g/ha (MOOVA) of 0%, a pest or weed control at 31 g/ha (MOOVA) of 0% and a pest or weed control at 125 g/ha (MOOVA) of 0%. It also gave a pest or weed control at 500 g/ha (MOOVA) of 0%, a pest or weed control at 2 g/ha (SCPJU) of 0% and a pest or weed control at 8 g/ha (SCPJU) of 0%. It also gave a pest or weed control at 31 g/ha (SCPJU) of 0%, a pest or weed control at 125 g/ha (SCPJU) of 0% and a pest or weed control at 500 g/ha (SCPJU) of 0%. For the same molecule, the pest or weed control at 2 g/ha (SAGPY) was 0%, the pest or weed control at 8 g/ha (SAGPY) was 0% and the pest or weed control at 31 g/ha (SAGPY) was 0%. The pest or weed control at 125 g/ha (SAGPY) was 0%, the pest or weed control at 500 g/ha (SAGPY) was 0% and the plant injury at 2 g/ha (ORYSA; [1]) was 0%. The plant injury at 8 g/ha (ORYSA; [1]) was 0%, the plant injury at 31 g/ha (ORYSA; [1]) was 0% and the plant injury at 125 g/ha (ORYSA; [1]) was 0%. It also gave a plant injury at 500 g/ha (ORYSA; [1]) of 80%, a plant injury at 2 g/ha (ORYSA; [2]) of 0% and a plant injury at 8 g/ha (ORYSA; [2]) of 0%. For the same molecule, the plant injury at 31 g/ha (ORYSA; [2]) was 100%, the plant injury at 125 g/ha (ORYSA; [2]) was 100% and the plant injury at 500 g/ha (ORYSA; [2]) was 100%.

`C=CCON=C(CCC)C1=C(O)CC(c2c(C)c(C)c3c(c2C)CC(C)(CC)C3)CC1=O` (stereo not drawn) [Compound 18] gave a pest or weed control at 2 g/ha (ECHOR) of 0%, a pest or weed control at 8 g/ha (ECHOR) of 30% and a pest or weed control at 31 g/ha (ECHOR) of 70%. For the same molecule, the pest or weed control at 125 g/ha (ECHOR) was 100%, the pest or weed control at 500 g/ha (ECHOR) was 100% and the pest or weed control at 2 g/ha (MOOVA) was 0%. For the same molecule, the pest or weed control at 8 g/ha (MOOVA) was 0%, the pest or weed control at 31 g/ha (MOOVA) was 0% and the pest or weed control at 125 g/ha (MOOVA) was 0%. The pest or weed control at 500 g/ha (MOOVA) was 0%, the pest or weed control at 2 g/ha (SCPJU) was 0% and the pest or weed control at 8 g/ha (SCPJU) was 0%. It also gave a pest or weed control at 31 g/ha (SCPJU) of 0%, a pest or weed control at 125 g/ha (SCPJU) of 0% and a pest or weed control at 500 g/ha (SCPJU) of 0%. It also gave a pest or weed control at 2 g/ha (SAGPY) of 0%, a pest or weed control at 8 g/ha (SAGPY) of 0% and a pest or weed control at 31 g/ha (SAGPY) of 0%. It also gave a pest or weed control at 125 g/ha (SAGPY) of 0%, a pest or weed control at 500 g/ha (SAGPY) of 0% and a plant injury at 2 g/ha (ORYSA; [1]) of 0%. The plant injury at 8 g/ha (ORYSA; [1]) was 0%, the plant injury at 31 g/ha (ORYSA; [1]) was 0% and the plant injury at 125 g/ha (ORYSA; [1]) was 0%. It also gave a plant injury at 500 g/ha (ORYSA; [1]) of 0%, a plant injury at 2 g/ha (ORYSA; [2]) of 0% and a plant injury at 8 g/ha (ORYSA; [2]) of 0%. It also gave a plant injury at 31 g/ha (ORYSA; [2]) of 0%, a plant injury at 125 g/ha (ORYSA; [2]) of 30% and a plant injury at 500 g/ha (ORYSA; [2]) of 100%.

`CCCC(=NOCC)C1=C(O)CC(c2c(C)c3c(c(C)c2Cl)CC(C)(C)C3)CC1=O` (stereo not drawn) [Compound 26, 5-(6-Chloro-2,2,4,7-tetramethylindan-5-yl)-2-[1-(ethoxyimino)butyl]-3-hydroxycyclohex-2-en-1-one] showed a pest or weed control at 2 g/ha (ECHOR) of 0%, a pest or weed control at 8 g/ha (ECHOR) of 0% and a pest or weed control at 31 g/ha (ECHOR) of 100%. It also gave a pest or weed control at 125 g/ha (ECHOR) of 100%, a pest or weed control at 500 g/ha (ECHOR) of 100% and a pest or weed control at 2 g/ha (MOOVA) of 0%. For the same molecule, the pest or weed control at 8 g/ha (MOOVA) was 0%, the pest or weed control at 31 g/ha (MOOVA) was 0% and the pest or weed control at 125 g/ha (MOOVA) was 0%. The pest or weed control at 500 g/ha (MOOVA) was 0%, the pest or weed control at 2 g/ha (SCPJU) was 0% and the pest or weed control at 8 g/ha (SCPJU) was 0%. The pest or weed control at 31 g/ha (SCPJU) was 0%, the pest or weed control at 125 g/ha (SCPJU) was 0% and the pest or weed control at 500 g/ha (SCPJU) was 40%. The pest or weed control at 2 g/ha (SAGPY) was 0%, the pest or weed control at 8 g/ha (SAGPY) was 0% and the pest or weed control at 31 g/ha (SAGPY) was 0%. The pest or weed control at 125 g/ha (SAGPY) was 0%, the pest or weed control at 500 g/ha (SAGPY) was 0% and the plant injury at 2 g/ha (ORYSA; [1]) was 0%. For the same molecule, the plant injury at 8 g/ha (ORYSA; [1]) was 0%, the plant injury at 31 g/ha (ORYSA; [1]) was 0% and the plant injury at 125 g/ha (ORYSA; [1]) was 0%. For the same molecule, the plant injury at 500 g/ha (ORYSA; [1]) was 30%, the plant injury at 2 g/ha (ORYSA; [2]) was 0% and the plant injury at 8 g/ha (ORYSA; [2]) was 0%. It also gave a plant injury at 31 g/ha (ORYSA; [2]) of 20%, a plant injury at 125 g/ha (ORYSA; [2]) of 100% and a plant injury at 500 g/ha (ORYSA; [2]) of 100%.
